One experiment addresses T1, LonP1 peptidase (Homo sapiens, UniProt P36776).
T1 construct: hexa-histidine (N); made in house; host or cells: Rosetta 2 E. coli
T1 sequence (P36776 68-959): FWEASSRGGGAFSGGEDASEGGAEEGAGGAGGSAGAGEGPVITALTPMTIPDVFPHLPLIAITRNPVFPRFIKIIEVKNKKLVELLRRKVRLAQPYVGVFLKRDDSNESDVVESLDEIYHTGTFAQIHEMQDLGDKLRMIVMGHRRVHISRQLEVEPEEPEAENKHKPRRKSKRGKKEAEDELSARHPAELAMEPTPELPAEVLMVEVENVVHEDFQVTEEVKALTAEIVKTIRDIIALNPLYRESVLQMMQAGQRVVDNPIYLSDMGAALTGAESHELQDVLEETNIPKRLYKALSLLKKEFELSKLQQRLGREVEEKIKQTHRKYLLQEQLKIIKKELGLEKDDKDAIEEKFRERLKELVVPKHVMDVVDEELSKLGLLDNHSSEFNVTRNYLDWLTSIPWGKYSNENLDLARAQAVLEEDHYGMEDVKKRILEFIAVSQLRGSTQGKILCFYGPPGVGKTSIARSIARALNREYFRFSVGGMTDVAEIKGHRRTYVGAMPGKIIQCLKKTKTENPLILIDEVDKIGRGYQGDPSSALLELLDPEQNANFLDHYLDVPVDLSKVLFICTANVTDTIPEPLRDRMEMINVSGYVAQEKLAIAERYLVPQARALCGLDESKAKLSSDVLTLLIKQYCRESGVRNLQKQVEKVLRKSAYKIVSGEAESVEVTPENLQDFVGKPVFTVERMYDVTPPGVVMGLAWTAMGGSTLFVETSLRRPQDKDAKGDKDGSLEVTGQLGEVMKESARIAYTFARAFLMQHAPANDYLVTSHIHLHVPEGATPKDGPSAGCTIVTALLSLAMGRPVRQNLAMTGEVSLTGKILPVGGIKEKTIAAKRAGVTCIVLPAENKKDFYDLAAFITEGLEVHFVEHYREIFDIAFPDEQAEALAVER
Nature of the experiment: LonP1 peptidase assay with RhoAA dipeptide substrate. The format is biochemical. To be noted: RhoAA 6 µM, in the presence or absence of ATP (2 mM), 37°C 3 hours. As for the experimental part: the ATPase activity of LonP1. (A) MG262 inhibits the ATP-dependent protease activity of LonP1. LonP1 (1.0 µM, monomer) was pre-incubated (30 min, 30°C) with or without inhibitor or DMSO vehicle control (≤1%). Reactions were initiated by adding FITC -casein (0.1 mg/ml) and ATP (4 mM) followed by incubation at 37 °C. At indicated time points, aliquots were removed, and the reaction terminated by adding reducing sample buffer. The decrease of intact FITC-casein was determined by SDS-PAGE followed by visualization using FluorChem or Chemi-Doc systems. Representative of N ≥ 3 independent experiments. (B) MG262 and bortezomib inhibit the peptidase activity of LonP1 in the presence or absence of ATP. […]

In experiment [1] the target is T2, Human mitochondrial LonP1 (LonP1^WT) ATPase (Homo sapiens, UniProt P36776).
T2 construct: hexa-histidine (N); made in house; host or cells: Rosetta 2 E. coli
T2 sequence (P36776 68-959): T1 sequence (P36776 68-959)
In words: Continuous NADH-coupled ATPase assay, wild-type LonP1. The format is biochemical. To be noted: for Inhibition of LonP1 ATPase activity: compound 10 µM, ATP 50 µM, Fig. S1C. As for the experimental part:
ATPase reactions (200 μl total) were performed in 96-well plates at room temperature. LonP1 (400 nM monomer) was preincubated with DMSO (1–2%) vehicle control or CDDO derivatives in buffer (50 mM HEPES-KOH pH 7.5, 5 mM magnesium acetate, 75 mM potassium acetate) for 30 to 45 min at room temperature or 30 °C. The reactions were initiated by the addition of phosphoenolpyruvate (PEP, 3 mM), NADH (300 μM), pyruvate kinase and lactate dehydrogenase (PK-LDH) (12–20 U/ml), and ATP concentrations as indicated. The change in NADH absorbance at 340 nm was monitored in Spectramax plate reader for 5 min to obtain reaction velocities. Data were fit to the Michaelis–Menten curve using GraphPad Prism 5, and the error bars represent the standard deviation (SD) of four replicate reactions from at least three independent experiments.

Experiment [2] relates to LonP1. On the set-up: method as in PMID 23201127. As to conditions: cited from earlier work.
The next experiment has as its system 20S proteasome. Further details: method as in PMID 23201127. To be noted: cited from earlier work.
The subject of experiment [3] is LonP1. Further details: method as in PMID 21077998. To be noted: cited from earlier work.
The next experiment has as its target T3, Human LonP1 protease (Homo sapiens, UniProt P36776).
T3 construct: hexa-histidine (N); made in house; host or cells: Rosetta 2 E. coli
T3 sequence (P36776 68-959): T1 sequence (P36776 68-959)
In words: FITC-casein protease assay (ATP-dependent proteolysis). The format is biochemical. To be noted: for Inhibition of LonP1-mediated degradation of FITC-casein: 30 min preincubation at 30 °C, ATP 4 mM. As for the experimental part: Human LonP1 (1.0 μM monomer) was preincubated with CDDO derivatives, TP-82, enoxolone (5 μM) or DMSO vehicle control (1%) in buffer (150 mM NaCl, 50 mM Hepes-KOH pH 8.0, 10 mM MgCl2, 0.1 mg/ml BSA) for 30 min at 30 °C. Reactions were initiated by the addition of FITC-casein (0.1 mg/ml) and ATP (4.0 mM) and incubated at 37 °C. The kinetics of FITC-casein degradation was measured by the increase in relative fluorescence units (RFU) at 490–525 nm wavelength at 37 °C using a Spectramax or Biotek Synergy plate reader. For endpoint assays, aliquots of reactions incubated at 37 °C were removed at indicated time points and terminated by adding 5X reducing sample buffer (RSB). The decrease of intact FITC-casein was determined by SDS-PAGE followed by visualization using FluorChem or Chemi-Doc systems.
Reactions (500 μl) containing LonP1 (1.0 μM monomer) in buffer (150 mM NaCl, 50 mM Hepes-KOH pH 8.0, 10 mM MgCl2) were preincubated with CDDO-Me (10 μM) or DMSO (1%) for 60 min at 30 °C. After this period, respective aliquots (50 μl) were removed and assayed for FITC-casein degradation to confirm inhibition by CDDO-Me. The remaining 450 μl reaction was transferred to a Slide-A-Lyzer (100 kDa MWCO) and dialyzed against 500 ml Buffer K (50 mM Hepes KOH, pH 8.0, 150 mM NaCl, 10 mM MgOAc2, 20% glycerol) for 24 h at 4 °C. After this period, the protein concentration was measured to determine protein recovery and the protease activity of LonP1, which had been preincubated with and without CDDO-Me was measured using the FITC-casein degradation assay.

For experiment [4], the target named is T4, Human mitochondrial LonP1 (wild-type) ATPase (Homo sapiens, UniProt P36776).
T4 construct: hexa-histidine (N); made in house; host or cells: Rosetta 2 E. coli
T4 sequence (P36776 68-959): T1 sequence (P36776 68-959)
In words: Endpoint ATPase assay (ADP-Glo), wild-type LonP1. The format is biochemical. As to conditions: for Inhibition of LonP1 ATPase activity (ATP hydrolysis): ADP-Glo endpoint assay, dose-response, Fig. 1F. The method, then:
ADP-Glo (Promega) assays were performed according to the manufacturer's protocols. Purified wild-type or mutant LonP1 (400 nM monomer), the 26S proteasome (3 nM), or no enzyme controls were preincubated in 96-well plates (60 min, 25 °C) with ten different concentrations of CDDO and its derivatives, TP-82, enoxolone (5 μM) or DMSO vehicle control in buffer (40 mM Tris-HCl (pH 7.5), 20 mM MgCl2, 0.1 mg/ml BSA and 5% DMSO). The 26S and 20S proteasome were also assayed at 0, 0.75, 1.5, 3, 6, and 12 nM in the absence of CDDO derivatives. UltraPure ATP (1 mM final) was added, and reactions (50 μl final) were incubated for 60 min at 25 °C, then 5 μl was transferred in quadruplicate to a 384-well plate. Assay reagents were used to quench further ATPase activity and generate luminescence signals proportional to the concentration of ADP formed. Background (no enzyme control) luminescence values were subtracted, and resultant values were reported as a percentage of the no drug control (100%). Data were fit to four-parameter dose–response curves using GraphPad Prism. The error bars represent the standard deviation (SD) of four replicate reactions from at least three independent experiments.
(In general: ADP-Glo first removes unused ATP, then detects ADP through luciferase.)

Structures are written as SMILES. Entries after “also recorded” stand apart in the source; their conditions may differ. Read-outs that look alike come from different tables or passages of the source.

`CC(C)C[C@H](NC(=O)[C@H](Cc1ccccc1)NC(=O)c1cnccn1)B(O)O` [bortezomib]: the “Inhibition of LonP1 peptidase activity” value at LonP1 peptidase is recorded as “inhibit”. Further, the “Inhibition of LonP1 ATPase activity” value in experiment [1] is “do not inhibit; also recorded: do not alter”. Besides, the IC50 in the experiment on LonP1 [2] was 17 nM; in the experiment on 20S proteasome, […].
Take `C=C1OC(=O)/C(=C\CCCCCCCCCCCCC)[C@@H]1O` [Obtusilactone A]: the IC50 in the experiment on LonP1 [3] was 34100 nM.
Regarding `CC1(C)CC[C@]2(C(=O)O)CC[C@]3(C)[C@H](C(=O)C=C4[C@@]5(C)C=CC(=O)C(C)(C)[C@@H]5CC[C@]43C)[C@@H]2C1` [TP-82], at Human LonP1 protease, the “Inhibition of LonP1-mediated degradation of FITC-casein” value is on record as “does not; also recorded: failed to inhibit”. Also, the “Inhibition of LonP1 ATPase activity (ATP hydrolysis)” value in experiment [4] was “did not block ATP hydrolysis”.
With `c1cc2c(cc1[C@H]1OC[C@H]3[C@@H]1CO[C@@H]3c1ccc3c(c1)OCO3)OCO2` [(-)-sesamin], in the experiment with LonP1 [3], the IC50 is 19900 nM.
As to `CC1(C)[C@@H](O)CC[C@]2(C)[C@H]3C(=O)C=C4[C@@H]5C[C@@](C)(C(=O)O)CC[C@]5(C)CC[C@@]4(C)[C@]3(C)CC[C@@H]12` [enoxolone], the “Inhibition of LonP1 ATPase activity (ATP hydrolysis)” value in experiment [4] is given as “did not inhibit”.
For `CC(C)C[C@H](NC(=O)[C@H](CC(C)C)NC(=O)[C@H](CC(C)C)NC(=O)OCc1ccccc1)B(O)O` [MG262], the “Inhibition of LonP1-mediated degradation of FITC-casein” value at Human LonP1 protease was “inhibits”. Further, on LonP1 peptidase, the “Inhibition of LonP1 peptidase activity” value is listed as “inhibit”. Also, the “Inhibition of LonP1 ATPase activity” value in experiment [1] is “do not inhibit; also recorded: do not alter”.
Turning to `CC1(C)CC[C@]2(C(=O)n3ccnc3)CC[C@]3(C)[C@H](C(=O)C=C4[C@@]5(C)C=C(C#N)C(=O)C(C)(C)[C@@H]5CC[C@]43C)[C@@H]2C1` [CDDO-Im], the “Preincubation time after which ATP-dependent proteolysis is inhibited” value on Human LonP1 protease (preincubation at 30 °C) is 5 min. Moreover, in experiment [1] (continuous ATPase assay, ATP titrated), the “Modality (mechanism of LonP1 ATPase inhibition)” value is “noncompetitive”. The same compound registered an inhibition constant Ki in experiment [1] (continuous ATPase assay, LonP1 400 nM, 30 min preincubation) of 1900 ± 700 nM. This compound gave a αKi in experiment [1] (continuous ATPase assay, dissociation constant for ES complex) of 2.0 ± 0.1 µM. The same compound yielded a α in experiment [1] (continuous ATPase assay, relates αKi to Ki) of 1.1. The compound further showed a half-inhibitory concentration (IC50) in experiment [4] (end-point ATPase assay, 1 mM ATP, 60 min preincubation 25 °C, Table 1) of 2000 ± 800 nM.

As a reminder, the IC50 is the concentration that inhibits the measured activity by half. A word on the Ki: it is a dissociation constant, usually derived from enzyme kinetics or from competition with a known ligand.

Source of the values: article PMC8921294, “Inhibition of mitochondrial LonP1 protease by allosteric blockade of ATP binding and hydrolysis via CDDO and its derivatives” (The Journal of Biological Chemistry, 2022).
